{"source": "patent US11207286B2", "about": "“Self-emulsifying composition of w3 fatty acid” (MOCHIDA PHARMACEUTICAL CO., LTD., priority 2009, dated 2021)", "key": {"[1]": {"test_system": "Fasted Glucose Tolerance Model Rat", "test": "Effectiveness in fasted glucose tolerance model rat", "type": "in vivo, Sprague Dawley rats", "conditions": "rats fasted at least 24 hours, oral capsule 100 mg/kg in terms of EPA-E, glucose 2 g/kg 30 minutes later", "procedure": "Male Sprague Dawley rats (10 week old, Charles River Laboratories Japan, Inc.) are divided into 4 groups each comprising 10 animals with even body weight and serum TG value. Control group is administered with olive oil, EPA-E group is administered with EPA-E stock solution, Example group is administered with the self-emulsifying composition of Example 6, and comparative group is administered with the composition of Comparative Example 2 by filling in the gelatin capsule and perorally administering the capsule to the animals, respectively. The test animals are fasted at least 24 hours before the administration, and each animal is administered with the composition at an amount of 100 mg/kg in terms of the olive oil or the EPA-E. 30 minutes after the administration, glucose solution in physiological saline is orally administered at 2 g/kg. Blood is periodically collected from tail vein, and plasma TG concentration and free fatty acid concentration are measured by using a commercially available assay kit. Change from the value before the glucose loading is calculated for each parameter."}, "[2]": {"conditions": "on rare occasion; cited from earlier work"}, "[3]": {"test": "Pharmacokinetics in cynomolgus monkey", "type": "in vivo", "conditions": "cynomolgus monkeys fasted at least 12 hours, oral, 4.5 mg/kg in terms of EPA-E, plasma EPA", "procedure": "The compositions of the Example 6 was orally administered to 6 cynomolgus monkies (2 to 5 years having a body weight of 2.70 to 4.65 kg, Hamri Co., Ltd.) under fasting, and time course blood EPA concentration was evaluated. The test animals were fasted at least for 12 hours before the test, and each animal was administered with the self-emulsifying composition at an amount of 4.5 mg/kg in terms of the EPA-E. The EPA-E stock solution filled in a capsule was also administered to the control group animals. The blood was collected before the administration and at 1, 2, 4, 6, 8, 10, 12, 24, 48, and 72 hours after the administration, and after separating and treating the plasma, plasma EPA was measured by LC/MS/MS. […] In calculating each parameter, the value was corrected by subtracting the blood EPA concentration before the administration from the blood concentration after the administration."}, "[4]": {"test": "Pharmacokinetics in beagle", "type": "in vivo", "conditions": "male beagles fasted at least 18 hours, oral, 600 mg in terms of EPA-E, plasma EPA, corrected for pre-administration concentration", "procedure": "The compositions of the Examples 6, 7, 9, 10, 13, and Comparative Example 2 were orally administered to 3 to 8 male beagles (34 to 45 months old having a body weight of 11 to 17 kg, Kitayama Labes Co., Ltd.) under fasting, and time course blood EPA concentration was evaluated. The test animals were fasted at least for 18 hours before the test, and each animal was administered with the composition at an amount of 600 mg in terms of the EPA-E. The blood was collected before the administration and at 1, 1.5, 2, 2.5, 3, 4, 6, 8, and 24 hours after the administration, and after separating and treating the plasma, plasma EPA concentration was measured by LC/MS/MS. The EPA-E stock solution filled in a capsule was also administered to the control group animals. […] In calculating each parameter, the value was corrected by subtracting the blood EPA concentration before the administration from the blood concentration after the administration."}}, "data": [{"smiles": "CC/C=C\\C/C=C\\C/C=C\\C/C=C\\C/C=C\\CCCC(=O)OCC", "note": "[EPA-E stock solution, Ethyl eicosapentaenoate ester]", "values": [{"measurement": "increase in plasma TG concentration after the glucose loading", "setting": "[1]", "value": "not observed"}, {"measurement": "side effect: nausea", "setting": "[2]", "value": 0.23, "unit": "%"}, {"measurement": "side effect: stomach discomfort", "setting": "[2]", "value": 0.23, "unit": "%"}, {"measurement": "side effect: vomiturition", "setting": "[2]", "value": 0.21, "unit": "%"}, {"measurement": "AUC0-12", "setting": "[3]; 0 to 12 hours, corrected", "value": 46.5, "unit": "µg·h/mL"}, {"measurement": "AUC0-72", "setting": "[3]; 0 to 72 hours, corrected", "value": 284.5, "unit": "µg·h/mL"}, {"measurement": "Cmax", "setting": "[3]; corrected for pre-administration concentration", "value": 7400, "unit": "ng/mL"}, {"measurement": "AUC0-2", "setting": "[4]; 0 to 2 hours", "value": 14.4, "unit": "µg·h/mL"}, {"measurement": "AUC0-24", "setting": "[4]; 0 to 24 hours", "value": 188.0, "unit": "µg·h/mL"}, {"measurement": "Cmax", "setting": "[4]", "value": 16600, "unit": "ng/mL"}]}]}
